In patent EP2012764B1, “PHARMACEUTICAL COMBINATION COMPRISING 3-(3-DIMETHYLAMINO-1-ETHYL-2-METHYL-PROPYL) -PHENOL AND PARACETAMOL” (Grünenthal GmbH, priority 2006, dated 2007):

Tested on: inflammatory pain
Experiment: Randall-Selitto test in rats (carrageenin-induced paw oedema, pressure at vocalisation, %MPE; isobolographic analysis)
Assay type: in vivo, rat
Procedure: The weight ratios of the components (a) and (b) that will lead to a supra-additive effect (synergistic effect) of the inventive pharmaceutical composition may be determined via the test of Randall and Selitto as described in Arch. Int. Pharmacodyn., 1957, 111: 409 to 419, which is a model for inflammatory pain. The respective part of the literature is hereby incorporated by reference and forms part of the present disclosure.
By means of injection of 0.1 ml of Carrageenin-suspension ventrally into a hind paw of a rat an oedema is induced, on which pain is generated 4 hours later by continuously increasing pressure with a stamp (2 mm tip diameter). The antinociceptive and antihyperalgesic activity of the tested substance is determined at different points in time after administration of the substance. The measured value to be determined and at the same time also the end point of the pain test is the pressure at which the vocalisation reaction of the rat occurs. The percentage maximum possible effect (%MPE) is calculated. The maximum pressure of the stamp is 250 g. The group size is n = 10.
The interactions studies presented herein were performed using equieffective doses of the two components, calculated from the ratio of the respective ED50 values of the components if administered alone.
The application route was intravenous (i.v.) for (1R,2R)-3-(3-Dimethylamino-1-ethyl-2-methyl-propyl)-phenol (A) and intraperitoneal (i.p.) for Paracetamol. […] According to their respective timepoint of peak effect, (1R,2R)-3-(3-Dimethylamino-1-ethyl-2-methyl-propyl)-phenol was applied 15 min and Paracetamol 120 min before timepoint of measurement of the interaction-experiments (i. e. Paracetamol was applied 105 min before (1R,2R)-3-(3-Dimethylamino-1-ethyl-2-methyl-propyl)-phenol, respectively). Thus, the time point of ED50 calculation of the combination corresponds to the timepoint of the peak effect of the respective compound.

Compound	timepoint of peak effect (Paracetamol alone, i.p.)	ED50 (confidence interval) (Paracetamol alone, i.p., 120 min p. appl. (peak effect), rat, n = 10, 120 min)	ED50 (Rattus norvegicus, ip, 2 h, Paracetamol alone, i.p., 120 min p. appl. (peak effect), rat, n = 10, read-out: ED50 (confidence interval))	timepoint of peak effect (A alone, i.v., timepoint of first measurement)
CC(=O)Nc1ccc(O)cc1 [Paracetamol]	120 min p. appl.	189,9 (181,3-198,4) mg/kg	190 mg/kg	–
CC[C@@H](c1cccc(O)c1)[C@@H](C)CN(C)C [A, (1R,2R)-3-(3-Dimethylamino-1-ethyl-2-methyl-propyl)-phenol]	–	–	–	15 min p. appl.
